The values below come from PubChem BioAssay (NCI).

What all share (assay): NCI-60 cell line screen, 48 h
The subject of experiment [1] is OVCAR-5 ovarian.
Experiment [2] has as its system HT29 colon.
Experiment [3] has as its system CCRF-CEM leukemia.
In experiment [4] the test system is UACC-257 melanoma.
Experiment [5] concerns NCI-H226 lung.
For experiment [6], the system named is SNB-75 CNS.
Experiment [7] has as its system SK-MEL-2 melanoma.
Experiment [8] relates to HL-60(TB) leukemia.
Experiment [9] concerns PC-3 prostate.
Experiment [10] has as its system T-47D breast.

SMILES strings stand for the structures.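 A five-concentration, 48-hour dose response in 96-well plates underlies each endpoint, interpolated linearly between surrounding concentrations. GI50 = concentration required for 50% inhibition of growth. TGI is the concentration that stops growth completely.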

For the compound `CC1OC(n2cc(I)c(=O)[nH]c2=O)C=CC1=O` (centres undefined), the TGI was determined as 39.7 µM in experiment [1]; 30.6 µM in experiment [2]; 7.74 µM in experiment [3]; 27.8 µM in experiment [4]; 32.3 µM in [5]; 31.1 µM in [6]. Besides, the TGI in [7] is 32.4 µM; in [8], 24.6 µM.

For the compound `CC1=C2[C@@H](c3ccccc3)C3C=CC2(c2ccccc23)N(C(=O)Nc2cccc3ccccc23)C1=O` (some centres undefined), the TGI in [1], in experiment [3], in experiment [4] and in experiment [8] was more than 100 µM each time.

As to `C[CH2][Sn]([Cl])([CH2]C)[CH2]C`, the GI50 in [1] is 3.33 µM; in experiment [2] it was 0.439 µM; in experiment [3], 0.368 µM; in experiment [4], 1 µM; in experiment [5] it was 2.48 µM; in [6], 0.255 µM. Moreover, the GI50 in [7] was 0.606 µM. In addition, the TGI was 8.33 µM in experiment [1]; 2.62 µM in experiment [2]; 3.12 µM in experiment [3]; 4.43 µM in [4]; 5.36 µM in experiment [5]; 0.549 µM in [6]. The TGI in experiment [7] was 4.48 µM.

On to `Cc1nn(-c2ccccc2)c(C)c1/C=N/N1CCN(Cc2ccccc2)CC1`, for which the GI50 in experiment [1] was more than 100 µM; in experiment [2], 43 µM; in experiment [9], 25.2 µM; in [4] it was 63 µM; in experiment [5], 27.8 µM; in experiment [6], 99 µM. Moreover, the GI50 in experiment [7] is 60.7 µM; in experiment [8], 28.7 µM. In addition, the TGI in [1] was more than 100 µM; in [2], more than 100 µM; in [9] it was 96.5 µM; in experiment [4] it was more than 100 µM; in experiment [5], 96.2 µM; in experiment [6] it was more than 100 µM. Besides, the TGI in [7] is more than 100 µM; in [8], 63 µM.

Regarding `O=[N+]([O-])c1cc([N+](=O)[O-])c(C(Cl)C(Cl)c2ccccc2)cc1C(Cl)C(Cl)c1ccccc1` (centres undefined), the TGI in [1] stood at 4.43 µM; in [2], 4.67 µM; in [3] it was 5.96 µM; in experiment [4] it was 4.09 µM; in experiment [5] it was 5.18 µM; in [6], 5.17 µM. The TGI was 3.86 µM in [7] and more than 100 µM in experiment [8].

Consider `CO[C@]12CCC(=O)N1C=Cc1c2[nH]c2ccccc12`, for which the TGI in experiment [1], in [2], in experiment [3], in experiment [4], in [5] and in experiment [6] was more than 100 µM each time. For the same compound, in experiment [8], the TGI is more than 100 µM.

In the case of `O=C(NCCCCCCNC(=O)NC1OCC(O)C(O)C1O)NC1OCC(O)C(O)C1O` (centres undefined), the TGI in experiment [1], in experiment [2], in [3], in [5], in [6] and in experiment [7] was more than 100 µM each time. In addition, the TGI in experiment [8] was more than 100 µM.

Regarding `CCc1cccc(CC)c1NC(=O)c1ccn2c1CCc1cnc(Nc3ccc(N4CCN(C)CC4)cc3OC)nc1-2`, the GI50 in [1] was 3.51 µM; in [2] it was 1.26 µM; in experiment [9], 2.5 µM; in [3], 0.213 µM; in experiment [4] it was 2.05 µM; in [10] it was 1.55 µM. Besides, the GI50 in experiment [5] was 14.7 µM; in experiment [6] it was 1.87 µM. Further, the TGI in experiment [1] came to 22 µM; in experiment [2] it was 9.36 µM; in [9], 16.2 µM; in experiment [3], 6.6 µM; in [4] it was 4.8 µM; in experiment [10], 4.18 µM. Besides, the TGI is 45.2 µM in experiment [5] and 7.47 µM in experiment [6].

Regarding `COc1ccc(C(=O)c2cc(OC)c(OC)c(OC)c2)cc1/C=C/C(=O)c1ccc2c(c1)OCO2`, the GI50 was 2.64 µM in experiment [1]; 4.1 µM in [9]; 0.583 µM in experiment [3]; 3.55 µM in experiment [4]; 2.23 µM in experiment [5]; 3.11 µM in experiment [6]. Moreover, the GI50 in experiment [7] was 2.81 µM; in [8], 2.16 µM. In addition, the TGI in [1] is 8.19 µM; in [9], more than 100 µM; in experiment [3], more than 100 µM; in experiment [4], more than 100 µM; in [5], 6.32 µM; in [6], 15.6 µM. The figures for the TGI in [7] and in experiment [8] were 7.47 µM and more than 100 µM, respectively.

Regarding `O=C1c2ccccc2CCC1(Br)Br`, the GI50 is 1.76 µM in experiment [1]; 2.28 µM in experiment [2]; 4.14 µM in experiment [9]; 0.365 µM in experiment [3]; 1.88 µM in [4]; 1.98 µM in experiment [5]. The GI50 was 3.23 µM in [6], 3.13 µM in experiment [7] and 2.04 µM in experiment [8]. In addition, the TGI in experiment [1] is 3.25 µM; in experiment [2], 4.43 µM; in experiment [9], 16.9 µM; in [3] it was 2.01 µM; in [4], 4.98 µM; in experiment [5] it was 4.56 µM. The figures for the TGI in experiment [6], in experiment [7] and in [8] were 16.2 µM, 11.3 µM and 5.22 µM, respectively.

On to `CN1CCc2cc(O)c3cc2C1Cc1ccc(cc1)Oc1cc(ccc1O)CC1c2c(cc4c(c2O3)OCO4)CCN1C` (centres undefined), for which the TGI is 87.7 µM in experiment [1]; 74.4 µM in experiment [2]; more than 100 µM in [3]; 47.7 µM in experiment [5]; 39.4 µM in experiment [6]; 34.2 µM in experiment [7]. Further, the TGI in experiment [8] turned out to be 38.8 µM.

For `CCOC(=O)NN(C(=O)OCC)C(C(=O)c1ccc(Cl)cc1)=C1NCCN1`, the TGI in experiment [1], in experiment [2], in experiment [3], in experiment [4], in [5] and in experiment [6] was more than 100 µM in each case. For the same compound, the TGI in experiment [7] and in experiment [8] was more than 100 µM in each case.
